In patent publication US12110295B2, “WD40 repeat domain protein 5 (WDR5) degradation/disruption compounds and methods of use” (Icahn School of Medicine at Mount Sinai, priority 2018, dated 2024):
Entries after “also recorded” stand apart in the source; their conditions may differ.

What was measured:
WDR5 [1] = biological target: T1, WDR5 (Homo sapiens, UniProt P61964); conditions: MV4;11 cells, summary of FIGS. 1-3
Description: MV4;11 cells were treated with DMSO or indicated compounds at 1 μM and 10 μM for 18 hours.
MV4;11 cells were treated with DMSO or indicated compounds at 0.1 μM, 0.5 μM, 1 μM, 5 μM, and 10 μM for 18 hours.
MV4;11 cells were treated with DMSO or indicated compounds at a fixed concentration of 0.5 μM for 1, 2, 4, 8, 16, or 24 hours.
MV4;11 cells were treated with DMSO or indicated compounds at 0.1 μM and 0.5 μM for 18 hours. […] MV4;11 cells were treated with DMSO or indicated compounds at 0.1 μM and 1.0 μM for 18 hours.
WDR5 degraders were dissolved in DMSO and DMSO with no degraders was used as the control. 1×10^6 MV4;11 cells or 1×10^5 MIAPACA2 or 2×10^5 Hela cells were seeded in 2 mL medium for each well in 24-well plates.
And cells were collected at indicated timepoints: 1 h, 2 h, 4 h, 8 h, 16 h, and 24 h.

WDR5 [2] = biological target: T1, WDR5; assay: Screening of putative WDR5 degraders by Western blot in MV4;11 and/or MIAPACA2 cells; format: cell-based; design: After WDR5 degrader treatment, cells were collected and lysed; endogenous in cells; host or cells: MV4;11 and/or MIAPACA2; conditions: summary of screening, FIGS. 6-10
Procedure, shortened: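 MV4;11 (1×10^6/well) or MIAPACA2 (1×10^5/well) cells treated 18 h with compound at paired doses between 0.1 and 10 μM, DMSO as control. Total lysates immunoblotted for WDR5 with vinculin, tubulin or GAPDH loading controls; fluorescent secondary detection.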

MV4;11 cells = assay: Cell viability assay (trypan blue, live cell count) in MV4;11 cells; format: cell-based; conditions: 0.1, 0.5, 1, 5 and 10 μM, 72 h, FIG. 4
Description: MV4;11 cells were treated with DMSO or the indicated compounds at indicated concentration of 0.1 μM, 0.5 μM, 1 μM, 5 μM, and 10 μM for 72 hours.
MV4;11 cells were purchased from ATCC and cultured in RPMI 1640 supplemented with 10% FBS and 1% Penicillin/Streptomycin.
0.5×10^6 MV4;11 cells were seeded in 2 mL medium for each well in 12-well plates. WDR5 degraders in DMSO were added to the medium at indicated concentrations. DMSO was used as the control. Each treatment was done in duplicate wells. After 72 h treatment, 1 part cell suspension from each treatment was mixed with 1 part 0.4% trypan blue respectively. The mixture was allowed to incubate for ˜3 min at room temperature and live cells were counted by automated cell counter.

WDR5 [3] = biological target: T1, WDR5; assay: Western blot of WDR5 protein levels in MIAPACA2 cells; format: cell-based; design: After WDR5 degrader treatment, cells were collected and lysed; endogenous in cells; host or cells: MV4;11 and/or MIAPACA2; conditions: MIAPACA2 cells, 0.1, 0.5, 1, 5 and 10 μM, 18 h, FIG. 5
Description: MIAPACA2 cells were treated with DMSO or indicated compounds at 0.1 μM, 0.5 μM, 1 μM, 5 μM, and 10 μM for 18 hours.
MIAPACA2 cells were treated with DMSO or indicated compounds at 0.5 μM and 1.0 μM for 18 hours.
MIAPACA2 cells were treated with DMSO or indicated compounds at 0.1 μM and 0.5 μM for 18 hours.
MIAPACA2 cells were treated with DMSO or indicated compounds at 0.5 μM and 1.0 μM or at 1.0 μM and 10 μM for 18 hours.
MIAPACA2 and Hela cells were cultured in DMEM supplemented with 10% FBS and 1% Penicillin/Streptomycin.
WDR5 degraders were dissolved in DMSO and DMSO with no degraders was used as the control. 1×10^6 MV4;11 cells or 1×10^5 MIAPACA2 or 2×10^5 Hela cells were seeded in 2 mL medium for each well in […].
For prescreening of all the compounds, each test compound was added to the medium at indicated concentrations. After 18 h treatment, cells were collected.
After WDR5 degrader treatment, cells were collected and lysed. Total cell lysates were used for western blot. The following primary antibodies were used: WDR5 (Santa Cruz), vinculin (Cell Signaling Technology), tubulin (Cell Signaling Technology), GAPDH (Santa Cruz). Blots were imaged using fluorescence-labeled secondary antibodies on ChemiDoc™ Imaging Systems.

Row | Compound | reduction of WDR5 protein levels in a concentration- and time-dependent manner (WDR5 [1]) | effective degradation of WDR5 in MV4;11 and/or MIAPACA2 cells (WDR5 [2]) | viability of MV4;11 cells (MV4;11 cells) | reduction of WDR5 protein levels, concentration-dependent (WDR5 [3])
1 | CN1CCN(c2ccc(-c3cccc(CN4CCN(CCNC(=O)CCOCCOCCNc5cccc6c5C(=O)N(C5CCC(=O)NC5=O)C6=O)CC4)c3)cc2NC(=O)c2c[nH]c(=O)cc2C(F)(F)F)CC1 (stereo not drawn) [XF048-142, N-(3′-((4-(2-(3-(2-(2-((2-(2,6-dioxopiperidin-3-yl)-1,3-dioxoisoindolin-4-yl)amino)ethoxy)ethoxy)propanamido)ethyl)piperazin-1-yl)methyl)-4-(4-methylpiperazin-1-yl)-[1,1′-biphenyl]-3-yl)-6-oxo-4-(trifluoromethyl)-1,6-dihydropyridine-3-carboxamide] | effective in reducing WDR5 protein levels |  |  | 
2 | CN1CCN(c2ccc(-c3cccc(CN4CCN(CCNC(=O)CCOCCOCCOCCOCCOCCNc5cccc6c5C(=O)N(C5CCC(=O)NC5=O)C6=O)CC4)c3)cc2NC(=O)c2c[nH]c(=O)cc2C(F)(F)F)CC1 (stereo not drawn) [XF048-145, N-(3′-((4-(1-((2-(2,6-dioxopiperidin-3-yl)-1,3-dioxoisoindolin-4-yl)amino)-18-oxo-3,6,9,12,15-pentaoxa-19-azahenicosan-21-yl)piperazin-1-yl)methyl)-4-(4-methylpiperazin-1-yl)-[1,1′-biphenyl]-3-yl)-6-oxo-4-(trifluoromethyl)-1,6-dihydropyridine-3-carboxamide] | effective in reducing WDR5 protein levels |  |  | 
3 | Cc1ncsc1-c1ccc(CNC(=O)[C@@H]2C[C@@H](O)CN2C(=O)[C@@H](NC(=O)CCCCCCCCCC(=O)NCCN2CCN(Cc3cccc(-c4ccc(N5CCN(C)CC5)c(NC(=O)c5c[nH]c(=O)cc5C(F)(F)F)c4)c3)CC2)C(C)(C)C)cc1 [XF048-133, N^1-((S)-1-((2S,4R)-4-hydroxy-2-((4-(4-methylthiazol-5-yl)benzyl)carbamoyl)pyrrolidin-1-yl)-3,3-dimethyl-1-oxobutan-2-yl)-N^11-(2-(4-((4′-(4-methylpiperazin-1-yl)-3′-(6-oxo-4-(trifluoromethyl)-1,6-dihydropyridine-3-carboxamido)-[1,1′-biphenyl]-3-yl)methyl)piperazin-1-yl)ethyl)undecanediamide] | effective in reducing WDR5 protein levels | able to effectively degrade WDR5 | reduced the viability of MV4;11 cells much more significantly than the WDR5 inhibitor OICR-9429; also recorded: reduced the viability of MV4;11 cells much more significantly than the WDR5 inhibitor OICR-9419 | reduced WDR5 protein levels
